Test results taken from the NIST ThermoML archive (doi:10.1016/j.jct.2016.12.032).

Assay: xn = mol fraction of the nth substance listed
Details: 100 kPa, Liquid; for viscosity: Capillary tube (Ostwald / Ubbelohde) method; for mass density: Vibrating tube method

CC1CC(=O)O1 (stereo not drawn) [4-methyl-2-oxetanone] + CCCC[n+]1ccn(C)c1.O=S(=O)([N-]S(=O)(=O)C(F)(F)F)C(F)(F)F
Details | mass density [kg/m3] | viscosity [mPa·s]
293.15 K, x2 = 0 | 1055.93 | 1.68
293.15 K, x2 = 0.0493 | 1119.77 | 2.14
293.15 K, x2 = 0.1001 | 1167.52 | 2.75
293.15 K, x2 = 0.1526 | 1207.48 | 3.44
293.15 K, x2 = 0.2001 | 1240.41 | 4.75
293.15 K, x2 = 0.3001 | 1291.51 | 7.22
293.15 K, x2 = 0.4013 | 1329.17 | 10.69
293.15 K, x2 = 0.5004 | 1358.85 | 15.69
293.15 K, x2 = 0.5995 | 1382.95 | 22.26
293.15 K, x2 = 0.6929 | 1401.02 | 29.27
293.15 K, x2 = 0.814 | 1415.81 | 40.15
293.15 K, x2 = 0.9001 | 1434.72 | 50.31
298.15 K, x2 = 0 | 1050.68 | 1.55
298.15 K, x2 = 0.0493 | 1114.58 | 1.97
298.15 K, x2 = 0.1001 | 1162.33 | 2.52
298.15 K, x2 = 0.1526 | 1202.28 | 3.17
298.15 K, x2 = 0.2001 | 1235.24 | 4.38
298.15 K, x2 = 0.3001 | 1286.4 | 6.59
298.15 K, x2 = 0.4013 | 1324.12 | 9.61
298.15 K, x2 = 0.5004 | 1353.84 | 13.44
298.15 K, x2 = 0.5995 | 1377.94 | 18.55
298.15 K, x2 = 0.6929 | 1396.05 | 24.32
298.15 K, x2 = 0.814 | 1410.84 | 32.91
298.15 K, x2 = 0.9001 | 1429.79 | 41.25
303.15 K, x2 = 0 | 1045.31 | 1.48
303.15 K, x2 = 0.0493 | 1109.25 | 1.83
303.15 K, x2 = 0.1001 | 1157.05 | 2.3
303.15 K, x2 = 0.1526 | 1197 | 2.98
303.15 K, x2 = 0.2001 | 1229.97 | 3.9
303.15 K, x2 = 0.3001 | 1281.21 | 5.87
303.15 K, x2 = 0.4013 | 1318.98 | 8.14
303.15 K, x2 = 0.5004 | 1348.71 | 11.56
303.15 K, x2 = 0.5995 | 1372.86 | 15.74
303.15 K, x2 = 0.6929 | 1390.95 | 20.81
303.15 K, x2 = 0.814 | 1405.72 | 27.46
303.15 K, x2 = 0.9001 | 1424.69 | 34.24
308.15 K, x2 = 0 | 1039.85 | 1.4
308.15 K, x2 = 0.0493 | 1103.89 | 1.73
308.15 K, x2 = 0.1001 | 1151.73 | 2.13
308.15 K, x2 = 0.1526 | 1191.76 | 2.78
308.15 K, x2 = 0.2001 | 1224.72 | 3.51
308.15 K, x2 = 0.3001 | 1276.02 | 5.33
308.15 K, x2 = 0.4013 | 1313.79 | 7.28
308.15 K, x2 = 0.5004 | 1343.59 | 10.05
308.15 K, x2 = 0.5995 | 1367.78 | 13.61
308.15 K, x2 = 0.6929 | 1385.91 | 17.63
308.15 K, x2 = 0.814 | 1400.7 | 23.24
308.15 K, x2 = 0.9001 | 1419.71 | 28.09
313.15 K, x2 = 0 | 1034.33 | 1.33
313.15 K, x2 = 0.0493 | 1098.48 | 1.63
313.15 K, x2 = 0.1001 | 1146.34 | 1.99
313.15 K, x2 = 0.1526 | 1186.34 | 2.55
313.15 K, x2 = 0.2001 | 1219.4 | 3.21
313.15 K, x2 = 0.3001 | 1270.76 | 4.72
313.15 K, x2 = 0.4013 | 1308.61 | 6.41
313.15 K, x2 = 0.5004 | 1338.44 | 8.82
313.15 K, x2 = 0.5995 | 1362.65 | 11.75
313.15 K, x2 = 0.6929 | 1380.83 | 15.03
313.15 K, x2 = 0.814 | 1395.6 | 19.76
313.15 K, x2 = 0.9001 | 1414.64 | 23.76
318.15 K, x2 = 0 | 1028.79 | 1.25
318.15 K, x2 = 0.0493 | 1093.01 | 1.53
318.15 K, x2 = 0.1001 | 1140.96 | 1.86
318.15 K, x2 = 0.1526 | 1181.02 | 2.36
318.15 K, x2 = 0.2001 | 1214.09 | 2.94
318.15 K, x2 = 0.3001 | 1265.51 | 4.23
318.15 K, x2 = 0.4013 | 1303.39 | 5.76
318.15 K, x2 = 0.5004 | 1333.28 | 7.74
318.15 K, x2 = 0.5995 | 1357.54 | 10.26
318.15 K, x2 = 0.6929 | 1375.74 | 13.01
318.15 K, x2 = 0.814 | 1390.55 | 16.82
318.15 K, x2 = 0.9001 | 1409.63 | 20.35
323.15 K, x2 = 0 | 1023.19 | 1.18
323.15 K, x2 = 0.0493 | 1087.48 | 1.46
323.15 K, x2 = 0.1001 | 1135.51 | 1.72
323.15 K, x2 = 0.1526 | 1175.61 | 2.21
323.15 K, x2 = 0.2001 | 1208.72 | 2.7
323.15 K, x2 = 0.3001 | 1260.23 | 3.92
323.15 K, x2 = 0.4013 | 1298.21 | 5.18
323.15 K, x2 = 0.5004 | 1328.11 | 6.91
323.15 K, x2 = 0.5995 | 1352.41 | 9.02
323.15 K, x2 = 0.6929 | 1370.64 | 11.4
323.15 K, x2 = 0.814 | 1385.49 | 14.41
323.15 K, x2 = 0.9001 | 1404.58 | 17.27
